Patent US20220323406A1, “METHODS AND COMPOSITIONS FOR DIFFERENTIATING STEM CELLS” (Massachusetts Institute of Technology, priority 2019, published 2022)

What was measured:
[1] = test system: ENR+CD organoids (ISC to Paneth cell differentiation); test: Primary screen: basal (non-stimulated) lysozyme secretion LYZ.NS, 2.5-D 384-well ENR+CD organoid differentiation; type: cell-based, mouse
Description: (§1) High-throughput screening.

[2] = test system: ENR+CD organoids (ISC to Paneth cell differentiation); test: Primary screen: CCh-stimulated lysozyme secretion LYZ.S, 2.5-D 384-well ENR+CD organoid differentiation; type: cell-based, mouse; details: primary screen
Description: as §1

ENR+CD organoids = test: Primary screen: ATP (CellTiter-Glo 3D, CTG) cell number/viability, 2.5-D 384-well ENR+CD organoids;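 further: compounds given at plating and again on day 3 over a 6-day differentiation from ENR+CV stem-cell-enriched precursors, ATP measured on day 6, plate median as control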
[3] = primary screen, standard z score, dose 0.08 uM
[4] = primary screen, standard z score, dose 0.40 uM
[5] = primary screen, standard z score, dose 2.00 uM
[6] = primary screen, standard z score, dose 10.00 uM
[7] = primary screen, dose 0.08 uM, FC relative to plate median
[8] = primary screen, dose 0.08 uM, standard z score
[9] = primary screen, dose 0.40 uM, FC relative to plate median
[10] = primary screen, dose 0.40 uM, standard z score
[11] = primary screen, dose 2.00 uM, FC relative to plate median
[12] = primary screen, dose 2.00 uM, standard z score
[13] = primary screen, dose 10.00 uM, FC relative to plate median
[14] = primary screen, dose 10.00 uM, standard z score

| Structure (SMILES) | Dose.FC.LYZ.NS ([1]; primary screen, dose 0.08 uM) | Dose.FC.LYZ.NS ([1]; primary screen, dose 0.40 uM) | Dose.FC.LYZ.NS ([1]; primary screen, dose 2.00 uM) | Dose.FC.LYZ.NS ([1]; primary screen, dose 10.00 uM) | Z.LYZ.NS [1, 3] | Z.LYZ.NS [1, 4] | Z.LYZ.NS [1, 5] | Z.LYZ.NS [1, 6] | Dose.FC.LYZ.S ([2]; dose 0.08 uM) | Dose.FC.LYZ.S ([2]; dose 0.40 uM) | Dose.FC.LYZ.S ([2]; dose 2.00 uM) | Dose.FC.LYZ.S ([2]; dose 10.00 uM) | Dose.FC.CTG (ENR+CD organoids; primary screen, dose 0.08 uM) | Dose.FC.CTG (ENR+CD organoids; primary screen, dose 0.40 uM) | Dose.FC.CTG (ENR+CD organoids; primary screen, dose 2.00 uM) | Dose.FC.CTG (ENR+CD organoids; primary screen, dose 10.00 uM) | other results |
| --- | --- | --- | --- | --- | --- | --- | --- | --- | --- | --- | --- | --- | --- | --- | --- | --- | --- |
| CC(=O)O[C@]1(C(C)=O)CC[C@H]2[C@@H]3C=C(Cl)C4=CC(=O)[C@@H]5C[C@@H]5[C@]4(C)[C@H]3CC[C@@]21C [Cyproterone Acetate] | −0.026 log2 fold change | −0.074 log2 fold change | −0.055 log2 fold change | −0.081 log2 fold change | −0.225 | −0.642 | −0.479 | −0.702 | 0.040 log2 fold change | −0.019 log2 fold change | −0.093 log2 fold change | −0.134 log2 fold change | −0.110 log2 fold change | 0.051 log2 fold change | −0.143 log2 fold change | −0.173 log2 fold change | – |
| CN[C@@H](C)C(=O)N[C@H](C(=O)N1CCC[C@H]1C(=O)Nc1snnc1-c1ccccc1)C1CCCCC1 [GDC-0152] | −0.002 log2 fold change | −0.020 log2 fold change | 0.083 log2 fold change | 0.103 log2 fold change | −0.013 | −0.176 | 0.724 | 0.900 | −0.020 log2 fold change | −0.036 log2 fold change | −0.057 log2 fold change | −0.009 log2 fold change | 0.151 log2 fold change | 0.158 log2 fold change | 0.003 log2 fold change | 0.241 log2 fold change | Z.CTG (ENR+CD organoids; [3]): 0.361; Z.CTG (ENR+CD organoids; [4]): 0.377; Z.CTG (ENR+CD organoids; [5]): 0.008; Z.CTG (ENR+CD organoids; [6]): 0.575 |
| Cc1ccc(NCCCc2ccccc2)c(N)c1 [JSH-23] | – | – | – | – | – | – | – | – | – | – | – | – | – | – | – | – | Dose.FC.LYZ.NS (log2 fold change) ([1]; primary screen, dose 0.08 uM): 0.054; Z.LYZ.NS (standard z score) ([1]; primary screen, dose 0.08 uM): 0.474; Dose.FC.LYZ.NS (log2 fold change) ([1]; primary screen, dose 0.40 uM): 0.079; Z.LYZ.NS (standard z score) ([1]; primary screen, dose 0.40 uM): 0.688; Dose.FC.LYZ.NS (log2 fold change) ([1]; primary screen, dose 2.00 uM): −0.002; Z.LYZ.NS (standard z score) ([1]; primary screen, dose 2.00 uM): −0.017; Dose.FC.LYZ.NS (log2 fold change) ([1]; primary screen, dose 10.00 uM): −0.046; Z.LYZ.NS (standard z score) ([1]; primary screen, dose 10.00 uM): −0.399; Dose.FC.LYZ.S (log2 fold change) ([2]; dose 0.08 uM): 0.164; Dose.FC.LYZ.S (log2 fold change) ([2]; dose 0.40 uM): 0.106; Dose.FC.LYZ.S (log2 fold change) ([2]; dose 2.00 uM): 0.005; Dose.FC.LYZ.S (log2 fold change) ([2]; dose 10.00 uM): −0.026; Dose.FC.CTG (log2 fold change) (ENR+CD organoids; primary screen, dose 0.08 uM): 0.193; Z.CTG (standard z score) (ENR+CD organoids; primary screen, dose 0.08 uM): 0.462; Dose.FC.CTG (log2 fold change) (ENR+CD organoids; primary screen, dose 0.40 uM): 0.230; Z.CTG (standard z score) (ENR+CD organoids; primary screen, dose 0.40 uM): 0.548; Dose.FC.CTG (log2 fold change) (ENR+CD organoids; primary screen, dose 2.00 uM): 0.074; Z.CTG (standard z score) (ENR+CD organoids; primary screen, dose 2.00 uM): 0.176; Dose.FC.CTG (log2 fold change) (ENR+CD organoids; primary screen, dose 10.00 uM): 0.046; Z.CTG (standard z score) (ENR+CD organoids; primary screen, dose 10.00 uM): 0.110 |
| CCOC(=O)c1cncn1[C@H](C)c1ccccc1 [Etomidate] | −0.008 log2 fold change | 0.037 log2 fold change | 0.015 log2 fold change | −0.001 log2 fold change | −0.065 | 0.318 | 0.131 | −0.010 | 0.053 log2 fold change | 0.048 log2 fold change | 0.054 log2 fold change | −0.008 log2 fold change | 0.084 log2 fold change | 0.006 log2 fold change | 0.163 log2 fold change | 0.039 log2 fold change | – |
| Cc1ccc(-n2nccn2)c(C(=O)N2CCN(c3nc4cc(Cl)ccc4o3)CC[C@H]2C)c1 [Suvorexant (MK-4305)] | – | – | – | – | – | – | – | – | – | – | – | – | – | – | – | – | Dose.FC.LYZ.NS [1, 7]: 0.204 log2 fold change; Z.LYZ.NS [1, 8]: 1.775; Dose.FC.LYZ.NS [1, 9]: 0.123 log2 fold change; Z.LYZ.NS [1, 10]: 1.073; Dose.FC.LYZ.NS [1, 11]: 0.123 log2 fold change; Z.LYZ.NS [1, 12]: 1.073; Dose.FC.LYZ.NS [1, 13]: 0.077 log2 fold change; Z.LYZ.NS [1, 14]: 0.670; Dose.FC.LYZ.S ([2]; dose 0.08 uM, FC relative to plate median): 0.186 log2 fold change; Dose.FC.LYZ.S ([2]; dose 0.40 uM, FC relative to plate median): 0.142 log2 fold change; Dose.FC.LYZ.S ([2]; dose 2.00 uM, FC relative to plate median): 0.101 log2 fold change; Dose.FC.LYZ.S ([2]; dose 10.00 uM, FC relative to plate median): 0.131 log2 fold change; Dose.FC.CTG (ENR+CD organoids; [7]): 0.192 log2 fold change; Z.CTG (ENR+CD organoids; [8]): 0.458; Dose.FC.CTG (ENR+CD organoids; [9]): 0.255 log2 fold change; Z.CTG (ENR+CD organoids; [10]): 0.609; Dose.FC.CTG (ENR+CD organoids; [11]): 0.375 log2 fold change; Z.CTG (ENR+CD organoids; [12]): 0.895; Dose.FC.CTG (ENR+CD organoids; [13]): 0.250 log2 fold change; Z.CTG (ENR+CD organoids; [14]): 0.597 |
